Assay results taken from ChEMBL document CHEMBL5150003, “Why All the Fury over Furin?” (J Med Chem, 2022).
Peptide text beside a SMILES is read from it.

How the values were obtained:
[1] = biological target: T1, Furin (Homo sapiens, UniProt P09958); assay: Inhibition of furin (unknown origin)
[2] = Inhibition of human papilloma virus-11 replication in HEK293 cells measured by transient DNA replication assay; type: functional, cell-based; conditions: human papillomavirus 11, HEK293
[3] = biological target: T1, Furin; assay: Inhibition of Tev-FLAG-His-tagged furin (108 to 574 residues) (unknown origin) using FAM-QRVRRAVGIDK-TAMRA as substrate and measured after 2 hrs
[4] = biological target: T1, Furin; assay: Inhibition of furin in human U2OS cells measured after 24 hrs by fluorescence assay; type: cell-based
[5] = system: Mus musculus; assay: Antifibrotic activity against bleomycin-induced mouse lung fibrosis model assessed as inhibition of TGF-beta secretion in lung at 10 mg/kg, po administered once daily; type: functional
[6] = system: Mus musculus; assay: Antifibrotic activity against bleomycin-induced mouse lung fibrosis model assessed as inhibition of hydroxyproline content in lung at 10 mg/kg, po administered once daily; type: functional
[7] = biological target: T1, Furin; assay: Inhibition of soluble human furin using boc-RVRR-MCA as substrate incubated for 45 mins and measured by fluorescence assay
[8] = biological target: T1, Furin; assay: Inhibition of recombinant human furin using Phac-Arg-Val-Arg-Arg-AMC as substrate incubated for 30 mins and measured by microplate reader method
[9] = Inhibition of porcine trypsin using Mes-DArg-Gly-Arg-AMC as substrate and measured by fluorescence assay; set-up: species or system Sus scrofa
[10] = biological target: Coagulation factor X (Homo sapiens, UniProt P00742); assay: Inhibition of human fXa using Mes-DArg-Pro-Arg-AMC as substrate and measured by fluorescence assay
Chain of Coagulation factor X (P00742 41-179 limits assumed): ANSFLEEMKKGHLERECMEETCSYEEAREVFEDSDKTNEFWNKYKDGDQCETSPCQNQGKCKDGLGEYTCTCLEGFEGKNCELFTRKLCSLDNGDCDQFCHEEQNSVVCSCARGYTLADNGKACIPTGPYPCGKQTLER
Chain of Coagulation factor X (P00742 235-488 limits assumed): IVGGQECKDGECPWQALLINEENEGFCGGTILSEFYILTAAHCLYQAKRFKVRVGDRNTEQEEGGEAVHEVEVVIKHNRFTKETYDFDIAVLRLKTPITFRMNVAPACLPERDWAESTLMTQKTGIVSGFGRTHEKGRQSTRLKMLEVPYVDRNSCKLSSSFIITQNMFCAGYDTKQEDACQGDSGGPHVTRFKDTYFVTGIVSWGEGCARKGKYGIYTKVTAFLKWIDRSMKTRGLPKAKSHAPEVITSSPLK

[11] = biological target: Prothrombin (Bos taurus, UniProt P00735); assay: Inhibition of bovine thrombin using Tos-Gly-Pro-Arg-AMC as substrate and measured by fluorescence assay
[12] = biological target: Plasminogen (Homo sapiens, UniProt P00747); assay: Inhibition of human plasmin using Mes-DArg-Phe-Arg-AMC as substrate and measured by fluorescence assay
Chain of Plasminogen (P00747 97-580 limits assumed): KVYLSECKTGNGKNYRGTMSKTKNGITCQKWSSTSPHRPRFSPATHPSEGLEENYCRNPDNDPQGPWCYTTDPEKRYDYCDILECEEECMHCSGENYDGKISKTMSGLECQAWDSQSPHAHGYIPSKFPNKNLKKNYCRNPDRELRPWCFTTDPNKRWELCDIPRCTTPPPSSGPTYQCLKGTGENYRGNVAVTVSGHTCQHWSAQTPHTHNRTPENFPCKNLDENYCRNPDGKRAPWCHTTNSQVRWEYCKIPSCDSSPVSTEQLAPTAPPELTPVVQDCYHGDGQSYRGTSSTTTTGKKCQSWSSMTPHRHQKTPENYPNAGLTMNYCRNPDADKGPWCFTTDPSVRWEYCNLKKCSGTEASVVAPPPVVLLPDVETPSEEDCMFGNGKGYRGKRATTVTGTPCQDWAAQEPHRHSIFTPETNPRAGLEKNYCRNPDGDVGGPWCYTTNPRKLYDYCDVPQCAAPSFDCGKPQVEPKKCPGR
Chain of Plasminogen (P00747 581-810 limits assumed): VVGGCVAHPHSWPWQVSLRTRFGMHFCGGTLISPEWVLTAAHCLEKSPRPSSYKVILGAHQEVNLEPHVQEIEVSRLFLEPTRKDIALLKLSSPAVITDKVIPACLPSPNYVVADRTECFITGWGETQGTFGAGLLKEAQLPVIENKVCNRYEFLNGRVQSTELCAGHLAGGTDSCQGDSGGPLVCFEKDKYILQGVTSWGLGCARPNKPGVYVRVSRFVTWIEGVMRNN

[13] = biological target: T2, Proprotein convertase subtilisin/kexin type 6 (Homo sapiens, UniProt P29122); assay: Inhibition of PACE4 (unknown origin)
T2 sequence (P29122 whole entry): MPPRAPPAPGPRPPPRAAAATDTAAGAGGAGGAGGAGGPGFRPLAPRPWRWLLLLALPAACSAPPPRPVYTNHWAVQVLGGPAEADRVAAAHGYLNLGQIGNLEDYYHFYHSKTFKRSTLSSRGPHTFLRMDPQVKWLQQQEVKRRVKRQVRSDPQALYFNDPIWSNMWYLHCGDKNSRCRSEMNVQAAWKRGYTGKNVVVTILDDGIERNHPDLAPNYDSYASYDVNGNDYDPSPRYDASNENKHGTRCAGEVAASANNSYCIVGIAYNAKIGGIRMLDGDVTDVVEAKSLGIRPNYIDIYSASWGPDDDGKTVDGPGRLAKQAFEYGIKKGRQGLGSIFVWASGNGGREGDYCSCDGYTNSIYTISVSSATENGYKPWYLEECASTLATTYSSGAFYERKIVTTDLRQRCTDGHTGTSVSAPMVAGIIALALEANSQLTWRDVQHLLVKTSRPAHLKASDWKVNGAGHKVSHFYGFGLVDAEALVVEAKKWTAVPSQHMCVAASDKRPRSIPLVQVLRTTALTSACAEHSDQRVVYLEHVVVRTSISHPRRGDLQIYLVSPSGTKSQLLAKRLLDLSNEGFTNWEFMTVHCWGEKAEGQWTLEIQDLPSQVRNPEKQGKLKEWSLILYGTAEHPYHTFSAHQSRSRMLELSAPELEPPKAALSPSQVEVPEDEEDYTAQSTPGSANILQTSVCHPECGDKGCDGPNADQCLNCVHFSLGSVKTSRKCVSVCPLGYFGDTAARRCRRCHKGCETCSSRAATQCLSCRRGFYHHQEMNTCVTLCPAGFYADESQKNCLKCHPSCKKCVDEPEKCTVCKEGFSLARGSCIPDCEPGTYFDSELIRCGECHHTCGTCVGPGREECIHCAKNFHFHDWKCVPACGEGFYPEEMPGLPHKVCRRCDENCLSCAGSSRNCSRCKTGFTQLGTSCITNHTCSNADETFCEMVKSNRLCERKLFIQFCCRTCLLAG

T1 sequence (P09958 whole entry): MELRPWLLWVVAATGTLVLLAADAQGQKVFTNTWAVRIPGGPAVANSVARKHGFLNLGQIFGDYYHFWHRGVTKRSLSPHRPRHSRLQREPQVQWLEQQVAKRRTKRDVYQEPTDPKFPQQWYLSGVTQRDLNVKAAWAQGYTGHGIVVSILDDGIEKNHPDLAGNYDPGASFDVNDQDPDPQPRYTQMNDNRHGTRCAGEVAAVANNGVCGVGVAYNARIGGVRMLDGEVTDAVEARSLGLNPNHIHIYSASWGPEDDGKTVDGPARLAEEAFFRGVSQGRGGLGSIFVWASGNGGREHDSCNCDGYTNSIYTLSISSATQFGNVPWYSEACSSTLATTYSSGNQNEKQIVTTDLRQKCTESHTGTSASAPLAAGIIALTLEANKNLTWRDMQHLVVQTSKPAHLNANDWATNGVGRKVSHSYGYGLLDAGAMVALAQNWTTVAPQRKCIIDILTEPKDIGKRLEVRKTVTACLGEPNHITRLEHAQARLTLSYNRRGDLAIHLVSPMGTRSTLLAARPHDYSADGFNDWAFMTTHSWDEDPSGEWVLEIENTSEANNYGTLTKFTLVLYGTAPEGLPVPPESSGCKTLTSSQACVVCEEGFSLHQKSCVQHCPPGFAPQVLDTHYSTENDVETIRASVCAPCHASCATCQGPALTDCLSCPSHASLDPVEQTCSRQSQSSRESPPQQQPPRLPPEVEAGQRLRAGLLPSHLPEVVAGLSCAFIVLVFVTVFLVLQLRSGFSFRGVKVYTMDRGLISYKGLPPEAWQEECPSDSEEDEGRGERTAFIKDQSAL

Structure (SMILES): CSc1oc(-c2ccc(Cl)cc2Cl)nc1[P+](c1ccccc1)(c1ccccc1)c1ccccc1
- Ki [1]: 1570 nM
- IC50 [2]: 1700 nM

Structure (SMILES): CC(CC1CCN(Cc2cc(Oc3cnc(N4CCN(C)CC4)nc3)nc(-c3cc(Cl)cc(Cl)c3)c2)CC1)C(=O)O (centres undefined)
- IC50 [3]: 0.794 nM
- pXC50 [4]: 8
- inhibition in vivo at 10 mg/kg [5]: 81%
- inhibition in vivo at 10 mg/kg [6]: 54%

Structure (SMILES): N=C(N)N/N=C/c1ccccc1OCc1ccc(Cl)cc1
- Ki [7]: 25300 nM

Structure (SMILES): CC(C)(C)[C@H](NC(=O)[C@H](CCCONC(=N)N)NC(=O)Cc1ccc(CNC(=N)N)cc1)C(=O)N[C@@H](CCCONC(=N)N)C(=O)NCc1ccc(C(=N)N)cc1
- Ki [8]: 0.0101 nM
- Ki [9]: 690 nM
- Ki [10]: > 3000 nM
- Ki [11]: > 3000 nM
- Ki [12]: > 3000 nM

Structure (SMILES): CC(=O)N[C@@H](CC(C)C)C(=O)N[C@@H](CC(C)C)C(=O)N[C@@H](CC(C)C)C(=O)N[C@@H](CC(C)C)C(=O)N[C@@H](CCCNC(=N)N)C(=O)N[C@H](C(=O)N[C@@H](CCCCN)C(=O)N[C@@H](CCCNC(=N)N)C(N)=O)C(C)C (Ac-LLLLRVKR-NH2)
- IC50 [1]: 20 nM
- IC50 [13]: 30 nM
